Laboratory results published in patent US10093630B2, “Pyrazole compounds and methods of making and using same” (ABIDE THERAPEUTICS, INC., priority 2014, dated 2018).

Legend:
Test in all cases: In vitro competitive activity-based protein profiling (gel-based, FP-Rh or HT-01 probe)
Assay type in all cases: biochemical
ABHD6 = target: T1, ABHD6 (Mus musculus, UniProt Q8R2Y0); details: for inhibition at 1 µM: 1 μM inhibitor, read-out: % Inhibition at 1 μM, C = ABHD6; for inhibition at 10 µM: 10 μM inhibitor, read-out: % Inhibition at 10 μM, C = ABHD6; for IC50: mouse brain membrane fraction or cell lysates, 30 min preincubation at 37° C., read-out: Mouse (IC50 value, nM) ABHD6
T1 construct: Proteomes (mouse brain membrane fraction or cell lysates); from tissue; host or cells: mouse brain membrane fraction (or cell lysates, not specified)
T1 sequence (Q8R2Y0 1-336): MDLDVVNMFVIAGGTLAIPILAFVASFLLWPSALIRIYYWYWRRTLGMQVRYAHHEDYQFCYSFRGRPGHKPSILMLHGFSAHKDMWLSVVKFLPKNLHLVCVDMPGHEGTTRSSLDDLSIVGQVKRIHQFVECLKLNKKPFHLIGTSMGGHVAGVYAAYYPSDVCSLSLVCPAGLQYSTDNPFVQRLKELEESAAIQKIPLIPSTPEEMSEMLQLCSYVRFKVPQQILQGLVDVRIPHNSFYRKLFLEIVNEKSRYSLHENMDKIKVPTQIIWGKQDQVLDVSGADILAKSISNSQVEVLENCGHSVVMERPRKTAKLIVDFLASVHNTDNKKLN
Method in brief: (§1)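 Steps: inhibitor dilutions + proteome (1.0 mg/mL), 30 min, 37° C; add FP-Rh or HT-01 (50 μM DMSO stock), 30 min, 37° C; quench in SDS buffer; SDS-PAGE; gel imaging; band densitometry.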

FAAH = target: T2, FAAH (Mus musculus, UniProt O08914); details: for inhibition at 1 µM: 1 μM inhibitor, read-out: % Inhibition at 1 μM, B = FAAH; for inhibition at 10 µM: 10 μM inhibitor, read-out: % Inhibition at 10 μM, B = FAAH; for IC50: mouse brain membrane fraction or cell lysates, 30 min preincubation at 37° C., read-out: Mouse (IC50 value, nM) FAAH
T2 construct: Proteomes (mouse brain membrane fraction or cell lysates); from tissue; host or cells: mouse brain membrane fraction (or cell lysates, not specified)
T2 sequence (O08914 1-579): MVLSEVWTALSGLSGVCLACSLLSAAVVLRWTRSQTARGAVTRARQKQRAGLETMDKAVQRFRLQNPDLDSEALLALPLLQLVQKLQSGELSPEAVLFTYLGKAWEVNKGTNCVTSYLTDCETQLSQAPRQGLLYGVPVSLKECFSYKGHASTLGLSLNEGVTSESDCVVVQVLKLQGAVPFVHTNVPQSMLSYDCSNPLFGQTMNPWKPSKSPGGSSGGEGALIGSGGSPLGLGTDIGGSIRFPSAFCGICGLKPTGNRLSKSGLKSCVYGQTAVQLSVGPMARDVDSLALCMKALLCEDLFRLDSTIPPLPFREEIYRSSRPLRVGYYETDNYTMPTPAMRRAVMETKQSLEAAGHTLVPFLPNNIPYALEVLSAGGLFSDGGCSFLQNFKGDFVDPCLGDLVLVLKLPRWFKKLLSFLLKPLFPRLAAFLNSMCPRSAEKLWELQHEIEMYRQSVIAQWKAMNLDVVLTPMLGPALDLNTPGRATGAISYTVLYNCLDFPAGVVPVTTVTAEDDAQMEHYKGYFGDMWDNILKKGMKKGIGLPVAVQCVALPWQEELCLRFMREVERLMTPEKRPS
Method in brief: as §1

MAGL = target: T3, MAGL (Mus musculus, UniProt O35678); details: for inhibition at 1 µM: 1 μM inhibitor; for inhibition at 10 µM: 10 μM inhibitor; for IC50: mouse brain membrane fraction or cell lysates, 30 min preincubation at 37° C., read-out: Mouse (IC50 value, nM) MAGL
T3 construct: Proteomes (mouse brain membrane fraction or cell lysates); from tissue; host or cells: mouse brain membrane fraction (or cell lysates, not specified)
T3 sequence (O35678 1-303): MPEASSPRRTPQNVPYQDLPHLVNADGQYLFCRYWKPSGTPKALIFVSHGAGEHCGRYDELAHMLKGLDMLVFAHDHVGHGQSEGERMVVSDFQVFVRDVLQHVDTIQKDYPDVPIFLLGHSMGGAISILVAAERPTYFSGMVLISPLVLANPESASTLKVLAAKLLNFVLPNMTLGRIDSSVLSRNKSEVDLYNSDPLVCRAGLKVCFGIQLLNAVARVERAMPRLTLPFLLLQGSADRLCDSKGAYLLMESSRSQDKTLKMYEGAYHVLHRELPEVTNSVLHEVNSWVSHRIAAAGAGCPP
Method in brief: as §1

PLA2G7 = target: T4, PLA2G7 (Mus musculus, UniProt Q60963); details: for inhibition at 1 µM: 1 μM inhibitor, read-out: % Inhibition at 1 μM, D = PLA2G7; for inhibition at 10 µM: 10 μM inhibitor, read-out: % Inhibition at 10 μM, D = PLA2G7; for IC50: mouse brain membrane fraction or cell lysates, 30 min preincubation at 37° C.
T4 construct: Proteomes (mouse brain membrane fraction or cell lysates); from tissue; host or cells: mouse brain membrane fraction (or cell lysates, not specified)
T4 sequence (Q60963 22-440): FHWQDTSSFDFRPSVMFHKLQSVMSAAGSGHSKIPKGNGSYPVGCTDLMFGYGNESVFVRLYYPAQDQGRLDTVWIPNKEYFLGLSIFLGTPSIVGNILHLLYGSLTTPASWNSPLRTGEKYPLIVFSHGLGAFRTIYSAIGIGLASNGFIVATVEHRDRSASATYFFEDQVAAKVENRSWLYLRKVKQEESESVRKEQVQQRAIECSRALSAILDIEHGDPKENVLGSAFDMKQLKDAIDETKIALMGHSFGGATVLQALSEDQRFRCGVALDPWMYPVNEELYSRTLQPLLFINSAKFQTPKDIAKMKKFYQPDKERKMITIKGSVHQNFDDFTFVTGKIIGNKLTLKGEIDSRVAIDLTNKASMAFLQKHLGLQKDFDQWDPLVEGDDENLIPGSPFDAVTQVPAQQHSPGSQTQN
Method in brief: as §1

Structure (SMILES) | inhibition at 1 µM (ABHD6) | inhibition at 10 µM (ABHD6) | inhibition at 1 µM (FAAH) | inhibition at 10 µM (FAAH) | inhibition at 1 µM (MAGL) | inhibition at 10 µM (MAGL) | inhibition at 1 µM (PLA2G7) | inhibition at 10 µM (PLA2G7) | IC50 (ABHD6) | IC50 (FAAH) | IC50 (MAGL) | IC50 (PLA2G7)
O=C(N1CCOCC1)n1cc(C(F)(F)F)cn1 [Example 201, Morpholino(4-(trifluoromethyl)-1H-pyrazol-1-yl)methanone] | > 75% | > 75% | > 75% | > 75% | < 25% | 25 to 75% | > 75% | > 75% | – | – | – | –
O=C(N1CCN(c2ccccc2)CC1)n1cc(C(F)(F)F)cn1 [Example 202, (4-Phenylpiperazin-1-yl)(4-(trifluoromethyl)-1H-pyrazol-1-yl)methanone] | > 75% | > 75% | > 75% | > 75% | > 75% | > 75% | > 75% | > 75% | – | – | – | –
N#Cc1cnn(C(=O)N2CCCC2)c1 [Example 203, 1-(Pyrrolidine-1-carbonyl)-1H-pyrazole-4-carbonitrile] | < 25% | > 75% | > 75% | > 75% | < 25% | > 75% | < 25% | > 75% | – | – | – | –
NC(=O)c1cnn(C(=O)N2CCN(Cc3ccc(Cl)cc3)CC2)c1 [Example 204, 1-(4-(4-chlorobenzyl)piperazine-1-carbonyl)-1H-pyrazole-4-carboxamide] | > 75% | – | > 75% | – | > 75% | – | < 25% | – | < 100 nM | 100 to 1000 nM | < 100 nM | > 1000 nM
N#Cc1cnn(C(=O)N2CCOCC2)c1 [Example 205, 1-(Morpholine-4-carbonyl)-1H-pyrazole-4-carbonitrile] | 25 to 75% | > 75% | > 75% | > 75% | < 25% | 25 to 75% | > 75% | > 75% | – | – | – | –
N#Cc1cnn(C(=O)N2CCN(c3ccccc3)CC2)c1 [Example 206, 1-(4-Phenylpiperazine-1-carbonyl)-1H-pyrazole-4-carbonitrile] | > 75% | > 75% | > 75% | > 75% | > 75% | > 75% | > 75% | > 75% | – | – | – | –
Cc1cc(N2CCN(C(=O)n3cc(-c4ccccc4)cn3)CC2)c2ccccc2n1 [Example 207, (4-(2-Methylquinolin-4-yl)piperazin-1-yl)(4-phenyl-1H-pyrazol-1-yl)methanone] | > 75% | > 75% | > 75% | > 75% | 25 to 75% | > 75% | 25 to 75% | > 75% | – | – | – | –
Cc1cc(N2CCN(C(=O)n3cc(Cl)cn3)CC2)c2ccccc2n1 [Example 208, (4-Chloro-1H-pyrazol-1-yl)(4-(2-methylquinolin-4-yl)piperazin-1-yl)methanone] | > 75% | > 75% | > 75% | > 75% | > 75% | > 75% | > 75% | > 75% | – | – | – | –
Cc1cc(N2CCN(C(=O)n3cc(C#N)cn3)CC2)c2ccccc2n1 [Example 209, 1-(4-(2-Methylquinolin-4-yl)piperazine-1-carbonyl)-1H-pyrazole-4-carbonitrile] | > 75% | > 75% | > 75% | > 75% | > 75% | > 75% | > 75% | > 75% | – | – | – | –
Cc1cc(N2CCN(C(=O)n3cc(C(F)(F)F)cn3)CC2)c2ccccc2n1 [Example 210, (4-(2-Methylquinolin-4-yl)piperazin-1-yl)(4-(trifluoromethyl)-1H-pyrazol-1-yl)methanone] | > 75% | > 75% | > 75% | > 75% | > 75% | > 75% | 25 to 75% | > 75% | 100 to 1000 nM | > 1000 nM | < 100 nM | < 100 nM
O=C(N1CCN(Cc2ccc(Cl)c(Cl)c2)CC1)n1cc(Cl)cn1 [Example 211, (4-Chloro-1H-pyrazol-1-yl)(4-(3,4-dichlorobenzyl)piperazin-1-yl)methanone] | > 75% | > 75% | > 75% | > 75% | > 75% | > 75% | < 25% | > 75% | < 100 nM | < 100 nM | < 100 nM | –
O=C(N1CCN(Cc2ccc(N3CCCC3)cc2)CC1)n1cc(Cl)cn1 [Example 212, (4-Chloro-1H-pyrazol-1-yl)(4-(4-(pyrrolidin-1-yl)benzyl)piperazin-1-yl)methanone] | > 75% | > 75% | > 75% | > 75% | > 75% | > 75% | < 25% | > 75% | 100 to 1000 nM | 100 to 1000 nM | < 100 nM | –
O=C(N1CCN(Cc2ccc(C(F)(F)F)cc2)CC1)n1cc(Cl)cn1 [Example 213, (4-Chloro-1H-pyrazol-1-yl)(4-(4-(trifluoromethyl)benzyl)piperazin-1-yl)methanone] | > 75% | > 75% | > 75% | > 75% | > 75% | > 75% | < 25% | > 75% | < 100 nM | < 100 nM | < 100 nM | 100 to 1000 nM
O=C(N1CCN(Cc2ccc(CN3CCOCC3)cc2)CC1)n1cc(Cl)cn1 [Example 214, (4-Chloro-1H-pyrazol-1-yl)(4-(4-(morpholinomethyl)benzyl)piperazin-1-yl)methanone] | > 75% | – | > 75% | – | > 75% | – | > 75% | – | – | – | – | –
